Laboratory results taken from PMC13243568, “Massive barcode-free chemical screenings enable the discovery of bioactive macrocycles with passive membrane permeability” (Nature Communications, 2026).
Entries after “also recorded” stand apart in the source; their conditions may differ. Starred links: 1 amine or outer side, 2 acyl side, 3 side chain; linkers in the order of their positions; H or OH if unused. Positions of bridges follow the written chain, without caps; N, C: chain ends. Non-standard residues stand in square brackets, D forms with d. Residues, ends and D or L forms follow the SMILES beside them. *: point of attachment. Phenylacetyl(3,4,5-triOMe) = COc1cc(CC(=O)*)cc(OC)c1OC; Biotin = O=C1N[C@H]2[C@H](CS[C@H]2CCCCC(=O)*)N1; Benzoyl(4-SO2NH2) = NS(=O)(=O)c1ccc(C(=O)*)cc1; Tyr(3-Cl) = N[C@@H](Cc1ccc(O)c(Cl)c1)C(=O)O; X1 = O=C([C@H]1CC[C@@H](N[*:1])C1)[*:2]; oXylylene = c1ccc(C[*:2])c(C[*:1])c1; εLys = N[C@@H](CCCCN[*:1])C(=O)[*:2]

Tests used:
CAIX = target: T1, CAIX (Homo sapiens, UniProt Q16790); assay: BLI direct binding assay against CAIX; conditions: biotinylated hit immobilized on streptavidin sensor, CAIX in solution; curves did not reach saturation; read-out: kinetic KD (BLI)
T1 construct: Anhydrase IX (38-414), His,Avitag (CA9H82E3); His; Avitag (biotinylated); purchased ACROBiosystems CA9H82E3
Protocol: Biolayer interferometry (BLI) assays were performed in 96-well plates (GreinerBio-One, polypropylene, flat-bottom, chimney well) using an Octet R4 system (SATORIUS). Wells were filled with 200 μL of kinetic buffer, compound solution or protein solution, purified compounds. Proteins were dissolved in the appropriate kinetic buffer specific for each target (CAIX: 1× PBS, 0.02% Tween-20, 1 mg/mL BSA [0.1% w/v]; WDR5: 20 mM Tris, 500 mM NaCl, pH 8.0, 0.02% Tween-20, and 1 mg/mL BSA [0.1% w/v]).
Purified biotinylated compounds were dissolved in an appropriate kinetic buffer and immobilized onto the streptavidin biosensor for 60 s. Sensors were then dipped into the kinetic buffer for 60 s, a concentration gradient of protein solution for 300 s and into the kinetic buffer for 300 s. Measurements were carried out at 20 °C.
Table S2: ASMS buffer summary.
B Biotinylated CAIX (1.5 μM) in A Biotinylated WDR5 (1.5 μM) in A […]
μM d-biotin 0.02% Tween-20, 400 μM biotin
D 10% FBS, 1x PBS 20m mM Tris, 500 mM NaCl, pH 8, 10% FBS, E 10 fmol/member library in buffer D 10 fmol/member library in buffer D F 1x PBS 20m mM Tris, 500 mM NaCl, pH 8
G 6M Guanidine HCl, 200 mM phosphate 6M Guanidine HCl, 200 mM phosphate buffer, pH 6.8, 10 mM TCEP HCl buffer, pH 6.8, 10 mM TCEP HCl
Sample preparation after AS: Following the affinity selection, samples were desalted using StageTips. […]

WDR5-MLL PPI = target: T2, WDR5-MLL PPI (Homo sapiens, UniProt P61964); assay: BLI competition assay, displacement of immobilized MLL peptide 16 from WDR5; format: binding; conditions: for inhibition of WDR5-MLL interaction, in words: 100 nM inhibitor, MLL immobilized on BLI tips; for displacement of MLL peptide from WDR5: tested at 100 and 50 nM WDR5; for Binding (ratio to control): Figure S11, BLI competition, control = WDR5 without inhibitor
T2 construct: A truncated human WDR5 construct encoding amino acids 22–; SUMO (N); made in house; host or cells: E. coli BL21 (DE3) (WDR5); the peptide was made by chemical synthesis
Protocol: Purified biotinylated competitors were dissolved in the appropriate kinetic buffer and immobilized onto the streptavidin biosensors at 100 nM for 60 s. Sensors were then dipped into the kinetic buffer for 60 s, and the concentration gradient of macrocyclic hit in a constant concentration protein solution for 600 s. Measurements were carried out at 20 °C. […]
was immobilized for 60 sec. at 100 nM. […]
were reincubated and association was measured for 600 sec. […]
Biolayer interferometry (BLI): Biolayer interferometry (BLI) assays were performed in 96 well plates (GreinerBio -One, polypropylene, flat ‐bottom, chimney well) using an Octet R4 system (SATORIUS).
Wells were filled with 200 μL with kinetic buffer, compound solution or protein solution , purifi ed compounds . Proteins were dissolved in the appropriate kinetic buffer specific for each target (CAIX:
Tween -20, 1 mg/mL BSA [0.1% w/v]). […]
Measurements were carried out at 20 °C.
Competition assay: Purified biotinylated competitor were dissolved in appropriate kinetic buffer and immobilized onto the streptavidin biosensors at 100nM for 60s. Sensors were then dipped into kinetic buffer for 60 s and concentration gradient of macrocyclic hit in constant concentration protein solution for 600s. Measurements were carried out at 20 °C.

[1] = Parallel artificial membrane permeability assay (PAMPA); format: in vitro ADME
Protocol: The plate system consisted of a 96-well microwell plate (donor wells) and a 96-well insert containing a PVDF membrane coated with tri-layers of phospholipids (acceptor wells). Permeability was measured from the bottom plate (donor wells) to the top insert (acceptor wells). Cyclic peptide or reference compound solutions were prepared at a concentration of 100 μM in 1xPBS buffer (pH 7.4) containing 1% DMSO, and 300 μl of the resulting solutions was placed into the donor wells of the PAMPA plate. Acceptor wells were prepared by adding 200 μl of PBS buffer (pH 7.4) containing 1% DMSO. The insert was stacked onto the donor plate, and the system was covered with a lid to avoid evaporation. […] Additionally, 3:2 dilutions of the 100 μM cyclic peptide stocks were prepared in 1xPBS buffer (pH 7.4) containing 1% DMSO to yield a sample corresponding to the theoretical equilibrium between donor and acceptor wells. The samples were run on the UPLC–HRMS to measure the cyclic peptide concentration representing maximum permeability. […]
Parallel artificial membrane permeability assay (PAMPA):
Permeability measurements
The insert was then stacked onto the donor […]
concentration of permeated peptides. To establish a reference for maximum permeability, 3:2 […]
the theoretical equilibrium between the donor and acceptor chambers. These equilibrium samples […]
Permeability (%) = [PeptideAcceptor ] (4)
P = VD×VA × −ln (1 − [PeptideAcceptor] ) (5) […]

MV-4:11 cells = assay: Cell viability, CellTiter-Glo, MV-4:11; format: cell-based; conditions: 72 h
Protocol: 5000 HL-60 (DSMZ ACC3), 3000 MV411 (DSMZ ACC554), and 7000 MOLM13 (DSMZ ACC554) cells were plated into an opaque-colored 96-well plate (Greiner Bio-One cat no 655083). […] About 100 μl CellTiter-Glo reagent was added to each well, and the plates were shaken for 5 min at 500 rpm. Luminescent signal was stabilized by incubating the plates for 10 min at RT. Luminescence was measured on the Victor X3 plate reader (Perkin Elmer).
were plated into an opaque colored 96 wells plate (Greiner Bio -one cat no 655083). Cells were plated
no G7570). 100 µl CellTiter-Glo reagent was added to each well and plates were shaken 5 minutes at 500 rpm. Luminescent signal was stabilized by incubating the plates 10 minutes at RT. Luminescence was measured on the Victor X3 plate reader (Perkin Elmer).

[2] = Serum stability assay in 25% human serum; conditions: pH 7.4
Protocol: The mixture was vortexed immediately after protein addition. […] After incubating on ice for 1 h, the samples were centrifuged at 10,000×g for 5 min. The supernatant was then injected into the UPLC–HRMS (20 μL) and the AUC of both peptide and IS calculated by analyzing the XIC curve for each exact mass value. For each run and timepoint, the peptide AUC was then normalized to the IS AUC.
vortexed immediately after protein addition. At different time points, a sample was retrieved and the
degradation reaction was quenched by the addition of 20% trichloroacetic acid (w/w) in 1x PBS
After incubating on ice for 1h , the samples were centrifuged at
10,000 rpms for 5 min. The supernatant was then injected into the UPLC -HRMS and the AUC of both
peptide and IS by analyzing the XIC curve for each exact mass value. For each run and timepoint, the peptide AUC was then normalized to the IS AUC . The relative stability values were then plotted using
Half -life times (t 1/2) were
calculated at the intersection of the curve with y=50%.

Compound: N=C(N)NCCC[C@@H]1NC(=O)[C@H](Cc2ccc(O)c(Cl)c2)NC(=O)[C@H](CCCCN)NC(=O)[C@@H](NC(=O)c2ccc(S(N)(=O)=O)cc2)CSSC[C@@H](C(=O)N[C@@H](CCCCN)C(=O)NCCCC[C@H](N)C(=O)NCCCC[C@H](N)C(=O)N[C@@H](CCCCNC(=O)CCCC[C@@H]2SC[C@@H]3NC(=O)N[C@@H]32)C(N)=O)NC1=O [Compound 7] ({Benzoyl(4-SO2NH2)}-CK[Tyr(3-Cl)]RCK[εLys][εLys]K(Biotin)-NH2; disulfide 1-5)
- Kd (CAIX): 1 nM

Compound: COc1cc(CC(=O)N[C@H]2CSSC[C@@H](C(N)=O)NC(=O)[C@H](Cc3c[nH]c4ccccc34)NC(=O)[C@H](CCCNC(=N)N)NC(=O)[C@H]3CC[C@H](C3)NC2=O)cc(OC)c1OC [Compound 14] ({Phenylacetyl(3,4,5-triOMe)}-C[X1]RWC-NH2; disulfide 1-5; C-terminus assumed)
- inhibition of WDR5-MLL interaction, in words (WDR5-MLL PPI; WDR5 50 nM): maintains full activity; also recorded: no association was detected; also recorded: comparable inhibitory potency
- IC50 (WDR5-MLL PPI; 16 immobilized at 100 nM, WDR5 50 nM, lower detection limit 25 nM, read-out: IC50, inhibition of WDR5-MLL PPI (BLI competition)): < 25 nM
- permeability (PAMPA) ([1]; PAMPA): < 1%

Compound: CC(=O)N[C@H]1CSSC[C@@H](C(N)=O)NC(=O)[C@H](Cc2c[nH]c3ccccc23)NC(=O)[C@H](CCCNC(=N)N)NC(=O)[C@H]2CC[C@H](C2)NC1=O [Compound 15] (Ac-C[X1]RWC-NH2; disulfide 1-5; C-terminus assumed)
- inhibition of WDR5-MLL interaction, in words (WDR5-MLL PPI; WDR5 50 nM): reduced (yet not abolished) activity; also recorded: maintained partial inhibitory activity

Compound: COc1cc(CC(=O)N[C@H]2CSCc3ccccc3CSC[C@@H](C(N)=O)NC(=O)[C@H](Cc3c[nH]c4ccccc34)NC(=O)[C@H](CCCNC(=N)N)NC(=O)[C@H]3CC[C@H](C3)NC2=O)cc(OC)c1OC [Compound 17] ({Phenylacetyl(3,4,5-triOMe)}-C[X1]RWC-NH2; linker 1-5 via oXylylene; C-terminus assumed)
- inhibition of WDR5-MLL interaction, in words (WDR5-MLL PPI; WDR5 50 nM): retained strong inhibition potency

Compound: COc1cc(CC(=O)N[C@H]2CSCc3ccccc3CSCCNC(=O)[C@H](Cc3c[nH]c4ccccc34)NC(=O)[C@H](CCCNC(=N)N)NC(=O)[C@H]3CC[C@H](C3)NC2=O)cc(OC)c1OC [Compound 17Δ]
- Permeability (%) ([1]; PAMPA): 17.17%
- permeability (PAMPA) ([1]; PAMPA): 16%
- inhibition of MV-4:11 cell proliferation, in words (MV-4:11 cells): did not inhibit cancer cell proliferation

Compound: COc1cc(CC(=O)N[C@H]2CSCc3cccc(c3)CSCCNC(=O)[C@H](Cc3c[nH]c4ccccc34)NC(=O)[C@H](CCCNC(=N)N)NC(=O)[C@H]3CC[C@H](C3)NC2=O)cc(OC)c1OC [Compound 18Δ]
- permeability (PAMPA) ([1]; PAMPA): 11%

Compound: COc1cc(CC(=O)N[C@H]2CSCc3ccc(cc3)CSCCNC(=O)[C@H](Cc3c[nH]c4ccccc34)NC(=O)[C@H](CCCNC(=N)N)NC(=O)[C@H]3CC[C@H](C3)NC2=O)cc(OC)c1OC [Compound 19Δ]
- permeability (PAMPA) ([1]; PAMPA): < 5%

Compound: COc1cc(CC(=O)N[C@H]2CSCc3ccc(cc3)-c3ccc(cc3)CSCCNC(=O)[C@H](Cc3c[nH]c4ccccc34)NC(=O)[C@H](CCCNC(=N)N)NC(=O)[C@H]3CC[C@H](C3)NC2=O)cc(OC)c1OC [Compound 20Δ]
- permeability (PAMPA) ([1]; PAMPA): < 5%

Compound: N=C(N)NCCC[C@@H]1NC(=O)[C@H]2CC[C@H](C2)NC(=O)[C@@H](NC(=O)Cc2cc(F)c(F)cc2F)CSCc2ccccc2CSCCNC(=O)[C@H](Cc2c[nH]c3ccccc23)NC1=O [Compound 23]
- displacement of MLL peptide from WDR5 (WDR5-MLL PPI): ≥ 50%
- permeability (PAMPA) ([1]; 100 µM, 18 h incubation, RT): 45%

Compound: N=C(N)NCCC[C@@H]1NC(=O)[C@H]2CC[C@H](C2)NC(=O)[C@@H](NC(=O)c2ccc(Cl)s2)CSCc2ccccc2CSCCNC(=O)[C@H](Cc2c[nH]c3ccccc23)NC1=O [Compound 25]
- displacement of MLL peptide from WDR5 (WDR5-MLL PPI): ≥ 50%
- permeability (PAMPA) ([1]; 100 µM, 18 h incubation, RT): 51%
- remaining at 24 h, 25 μM [2]: > 50%

Compound: N=C(N)NCCC[C@@H]1NC(=O)[C@H]2CC[C@H](C2)NC(=O)[C@@H](NC(=O)Cc2ccccc2Br)CSCc2ccccc2CSCCNC(=O)[C@H](Cc2c[nH]c3ccccc23)NC1=O [Compound 26]
- displacement of MLL peptide from WDR5 (WDR5-MLL PPI): ≥ 50%

Compound: CCCCCC(C)C(=O)N[C@H]1CSCc2ccccc2CSCCNC(=O)[C@H](Cc2c[nH]c3ccccc23)NC(=O)[C@H](CCCNC(=N)N)NC(=O)[C@H]2CC[C@H](C2)NC1=O (stereo partly shown) [Compound 27]
- displacement of MLL peptide from WDR5 (WDR5-MLL PPI): ≥ 50%
- permeability (PAMPA) ([1]; 100 µM, 18 h incubation, RT): 72%

Compound: N=C(N)NCCC[C@@H]1NC(=O)[C@H]2CC[C@H](C2)NC(=O)[C@@H](NC(=O)CCc2ccc(Br)cc2)CSCc2ccccc2CSCCNC(=O)[C@H](Cc2c[nH]c3ccccc23)NC1=O [Compound 28]
- displacement of MLL peptide from WDR5 (WDR5-MLL PPI): ≥ 50%

Compound: COc1cc(CC(=O)N(C)[C@H]2CSCc3ccccc3CSCCNC(=O)[C@H](Cc3c[nH]c4ccccc34)NC(=O)[C@H](CCCNC(=N)N)NC(=O)[C@H]3CC[C@H](C3)NC2=O)cc(OC)c1OC [s5]
- Binding (ratio to control) (WDR5-MLL PPI): 0.37
- passive permeability (PAMPA), in words ([1]; PAMPA): reduced permeability

Compound: COc1cc(CC(=O)N[C@H]2CSCc3ccccc3CSCCNC(=O)[C@H](Cc3c[nH]c4ccccc34)N(C)C(=O)[C@H](CCCNC(=N)N)NC(=O)[C@H]3CC[C@H](C3)NC2=O)cc(OC)c1OC [s7]
- Binding (ratio to control) (WDR5-MLL PPI): 0.83
- passive permeability (PAMPA), in words ([1]; PAMPA): reduced permeability
